ChEMBL document CHEMBL4483862, “Open-source discovery of chemical leads for next-generation chemoprotective antimalarials” (2018)

Tested on: Plasmodium berghei
Assay: Luciferase/luciferin-expressing antifolate-resistant parasites were used to infect a culture of HepG2 cells that were pre-incubated with compounds. Infected hepatocytes emit light due to the luciferase reaction. Assay results are presented as the percent inhibition of light emission compared to control. […]
Assay type: functional
Details: sporozoite; for IC90: read-out: LUCIFERASE INFECTION ASSAY - IC90
[1] = read-out: LUCIFERASE INFECTION ASSAY - IC50

Structure (SMILES)	IC90	further results
CCn1c2ccccc2c2cc(NC(=O)C(C)OC(=O)C3C(C(=O)OC)=C(C)NC(C)=C3C(=O)OC)ccc21 (centres undefined)	> 10 µM	IC50 (FFLUC_HILL_SLOPE 9.58, FFLUC_R_SQUARED 0.157, read-out: LUCIFERASE INFECTION ASSAY - IC50): > 10 µM
NC(=S)N/N=C/c1ccc(Cl)cc1	> 15.4 µM	IC50 (HEPG2TOX_HILL_SLOPE 16.1, HEPG2TOX_R_SQUARED 0.56, PBLUC_HILL_SLOPE 1.65, PBLUC_R_SQUARED 0.115, read-out: LUCIFERASE INFECTION ASSAY - IC50): > 15.4 µM
CC1Cc2cc(C(=O)CSc3nnc(Cc4cccs4)n3C)ccc2N1S(C)(=O)=O (centres undefined)	> 10 µM	IC50 (HEPG2TOX_HILL_SLOPE 2.13, 1.88, HEPG2TOX_R_SQUARED 0.890, 0.990, PBLUC_HILL_SLOPE 2.16, PBLUC_R_SQUARED 0.278, read-out: LUCIFERASE INFECTION ASSAY - IC50): 3.7 µM
O=C(Cn1cnc2sc(-c3ccccc3)cc2c1=O)Nc1nc(CN2CCCCC2)cs1	> 10 µM	IC50 [1]: > 10 µM
COc1ccc(CCN2C(=O)CS/C2=N\c2ccc(C)cc2C)cc1OC	> 8.58 µM	IC50 (FFLUC_HILL_SLOPE 11.8, FFLUC_R_SQUARED 0.0733, HEPG2TOX_HILL_SLOPE 1.46, HEPG2TOX_R_SQUARED 0.879, PBLUC_HILL_SLOPE 2.1, PBLUC_R_SQUARED 0.331, read-out: LUCIFERASE INFECTION ASSAY - IC50): 6.08 µM
Cc1cc(O)c(CN2CCN(S(=O)(=O)/C=C/c3ccccc3)CC2)cc1C(C)C	> 10 µM	IC50 [1]: > 10 µM
Cc1[nH]c2ccccc2c1C(=O)C(C)Sc1ccc2c(c1)OCCCO2 (centres undefined)	> 10 µM	IC50 (PBLUC_HILL_SLOPE 1.73, PBLUC_R_SQUARED 0.284, read-out: LUCIFERASE INFECTION ASSAY - IC50): 3.18 µM
COc1ccc(OC)c(NC(=O)c2ccc(NC3=C(Cl)C(=O)N(C4CCCCC4)C3=O)cc2)c1	8.05 µM	IC50 (HEPG2TOX_HILL_SLOPE 3.19, HEPG2TOX_R_SQUARED 0.935, PBLUC_HILL_SLOPE 2.39, PBLUC_R_SQUARED 0.579, read-out: LUCIFERASE INFECTION ASSAY - IC50): 3.21 µM
O=C(OCc1csc(-c2ccccc2)n1)c1ccccc1Sc1ccc(C(F)(F)F)cc1[N+](=O)[O-]	> 10 µM	IC50 [1]: > 10 µM
Cn1cc(-c2cn3c(-c4cccc(OC(F)(F)F)c4)cnc3cn2)cn1	> 9.18 µM	IC50 (PBLUC_HILL_SLOPE 3.72, PBLUC_R_SQUARED 0.643, read-out: LUCIFERASE INFECTION ASSAY - IC50): 5.44 µM
COc1cc(-c2cnc3cnc(-c4ccc(CNc5ccccc5)cc4)cn23)cc(OC)c1OC	5.78 µM	IC50 (PBLUC_HILL_SLOPE 3.28, PBLUC_R_SQUARED 0.672, read-out: LUCIFERASE INFECTION ASSAY - IC50): 2.96 µM
NC(COCc1ccccc1)c1csc(NC(=O)Nc2cccc(C(F)(F)F)c2)n1 (centres undefined)	> 7.56 µM	IC50 (HEPG2TOX_HILL_SLOPE 2.5, HEPG2TOX_R_SQUARED 0.677, PBLUC_HILL_SLOPE 2.37, PBLUC_R_SQUARED 0.435, read-out: LUCIFERASE INFECTION ASSAY - IC50): 5.16 µM
Cc1sc2ncnc(NC(C)C(=O)Nc3ccc4c(c3)OCCCO4)c2c1C (centres undefined)	> 10 µM	IC50 [1]: 8.08 µM
CC(=O)c1csc(NC(=O)c2cc(C(C)C)nc3c2c(C)nn3C(C)(C)C)n1	> 10 µM	IC50 [1]: > 10 µM
c1ccc(CN2CCc3nc(NCc4cccc(Oc5ccccc5)c4)ncc3C2)cc1	> 7.81 µM	IC50 [1]: > 7.81 µM
Clc1ccc(-c2cnc3cnc(-c4ccc(NCCN5CCOCC5)nc4)cn23)cc1	7.4 µM	IC50 (HEPG2TOX_HILL_SLOPE 7.91, HEPG2TOX_R_SQUARED 0.577, PBLUC_HILL_SLOPE 49, PBLUC_R_SQUARED 0.381, read-out: LUCIFERASE INFECTION ASSAY - IC50): 7.08 µM

Structure (SMILES)	IC90	further results
Cc1ccc(S(=O)(=O)N2CCCC(C(=O)NNC(=O)CCNC(=O)/C=C/c3ccccc3)C2)cc1 (centres undefined)	> 10 µM	IC50 [1]: > 10 µM
Cc1oc(C(C)(C)C)cc1-c1cc(NC(=O)Nc2ccccc2C#N)n(-c2cc(C(F)(F)F)cc(C(F)(F)F)c2)n1	3 µM	IC50 (HEPG2TOX_HILL_SLOPE 5.04, HEPG2TOX_R_SQUARED 0.982, PBLUC_HILL_SLOPE 7.22, PBLUC_R_SQUARED 0.381, read-out: LUCIFERASE INFECTION ASSAY - IC50): 2.22 µM
O=[N+]([O-])c1cc2c(c(Cn3c(COc4ccc(Cl)cc4Cl)nc4ccccc43)c1)OCOC2	7.34 µM	IC50 (FFLUC_HILL_SLOPE 4.75, FFLUC_R_SQUARED 0.0792, PBLUC_HILL_SLOPE 3.98, PBLUC_R_SQUARED 0.767, read-out: LUCIFERASE INFECTION ASSAY - IC50): 4.23 µM
O=C(Cn1ncc(Cl)c(Cl)c1=O)Nc1cccc(Oc2ccccc2)c1	> 10 µM	IC50 (FFLUC_HILL_SLOPE 8.65, FFLUC_R_SQUARED 0.47, PBLUC_HILL_SLOPE 2.15, PBLUC_R_SQUARED 0.511, read-out: LUCIFERASE INFECTION ASSAY - IC50): 6.79 µM
Fc1ccc(Nc2nccc3c2ncn3Cc2ccccc2)cc1Cl	> 10 µM	IC50 (PBLUC_HILL_SLOPE 1.48, PBLUC_R_SQUARED 0.272, read-out: LUCIFERASE INFECTION ASSAY - IC50): 3.67 µM
Cc1ccc(-n2nc(C)c(C(=O)Nc3ccccc3N3CCN(C)CC3)n2)c(C)c1	> 10 µM	IC50 (HEPG2TOX_HILL_SLOPE 0.399, HEPG2TOX_R_SQUARED 0.0602, read-out: LUCIFERASE INFECTION ASSAY - IC50): > 10 µM
Cc1[nH]c2ccccc2c1C(=O)C(C)OC(=O)c1c2c(nc3ccccc13)/C(=C/c1cccc([N+](=O)[O-])c1)CCC2 (centres undefined)	> 10 µM	IC50 (FFLUC_HILL_SLOPE 1.81, FFLUC_R_SQUARED 0.362, PBLUC_HILL_SLOPE 3.43, PBLUC_R_SQUARED 0.216, read-out: LUCIFERASE INFECTION ASSAY - IC50): 6.23 µM
CCN(CC)S(=O)(=O)N1CCN(C(=O)c2[nH]nc3ccccc23)CC1	3.63 µM	IC50 (PBLUC_HILL_SLOPE 2.28, PBLUC_R_SQUARED 0.575, read-out: LUCIFERASE INFECTION ASSAY - IC50): 1.39 µM
O=S(=O)(NCCNc1cnccn1)c1ccc(OC(F)(F)F)cc1	> 10 µM	IC50 [1]: > 10 µM
O=C(Cc1csc(COc2ccc(Cl)cc2)n1)Nc1ccccc1O	> 10 µM	IC50 (PBLUC_HILL_SLOPE 11.8, PBLUC_R_SQUARED 0.113, read-out: LUCIFERASE INFECTION ASSAY - IC50): 9.28 µM
CCN(Cc1ccccc1)c1ccc(/C=N/Nc2ccc(C)c(Cl)c2)cc1	> 10 µM	IC50 (FFLUC_HILL_SLOPE 2.55, FFLUC_R_SQUARED 0.818, read-out: LUCIFERASE INFECTION ASSAY - IC50): > 10 µM
COc1ccc(NC(=O)Cc2cccs2)cc1S(=O)(=O)Nc1ccc(Cl)cc1	> 10 µM	IC50 (FFLUC_HILL_SLOPE 1.73, FFLUC_R_SQUARED 0.168, HEPG2TOX_HILL_SLOPE 1.26, HEPG2TOX_R_SQUARED 0.964, PBLUC_HILL_SLOPE 12.3, PBLUC_R_SQUARED 0.183, read-out: LUCIFERASE INFECTION ASSAY - IC50): 9.75 µM
COc1cc(C#N)ccc1Oc1ccnc2cc(Cl)ccc12	> 10 µM	IC50 (HEPG2TOX_HILL_SLOPE 2.16, HEPG2TOX_R_SQUARED 0.625, PBLUC_HILL_SLOPE 9.16, PBLUC_R_SQUARED 0.449, read-out: LUCIFERASE INFECTION ASSAY - IC50): 8.55 µM
COc1ccccc1C(CNC(=O)c1ccc(-c2ccccc2Cl)o1)N1CCCC1 (centres undefined)	9.73 µM	IC50 (PBLUC_HILL_SLOPE 3.28, PBLUC_R_SQUARED 0.202, read-out: LUCIFERASE INFECTION ASSAY - IC50): 4.98 µM
Cn1/c(=N/NC=C2CCC/C(=C/c3ccccc3)C2=O)sc2ccccc21	> 10 µM	IC50 (PBLUC_HILL_SLOPE 4.26, PBLUC_R_SQUARED 0.398, read-out: LUCIFERASE INFECTION ASSAY - IC50): 8.32 µM
CCC(C)(C)C1CCC(NC(=O)N(C)CC(=O)Nc2c(C)cccc2C)CC1 (centres undefined)	> 10 µM	IC50 [1]: > 10 µM
